In patent US6426360B1, “4,5-substituted imidazolyl compounds for the treatment of inflammation” (G D Searle & Co., priority 1994, dated 2002):

| Compound | melting point [°C] |
| --- | --- |
| COc1ccc(-c2nc(C(F)(F)F)[nH]c2-c2ccc(S(C)(=O)=O)cc2)cc1OC [Example 41, 4-(3,4-Dimethoxyphenyl)-5-[4-(methylsulfonyl)phenyl]-2-(trifluoromethyl)-1H-imidazole] | 221 to 224 |
| COc1ccc(-c2nc(C(F)(F)F)[nH]c2-c2ccc(S(C)(=O)=O)cc2)cc1C [Example 42, 4-(4-Methoxy-3-methylphenyl)-5-[4-(methylsulfonyl)phenyl]-2-(trifluoromethyl)-1H-imidazole] | 265 to 267 |
| Cn1c(C(F)(F)F)nc(-c2ccc(F)cc2)c1-c1ccc(S(C)(=O)=O)cc1 [Example 45, 4-(4-Fluorophenyl)-1-methyl-5-[4-(methylsulfonyl)phenyl]-2-(trifluoromethyl)-1H-imidazole] | 193 to 195 |
| Cc1cc(C)cc(-c2[nH]c(C(F)(F)F)nc2-c2ccc(S(C)(=O)=O)cc2)c1 [Example 46, 5-(3,5-Dimethylphenyl)-4-[4-(methylsulfonyl)phenyl]-2-(trifluoromethyl)-1H-imidazole] | 255 to 257 |
| COc1c(C)cc(-c2[nH]c(C(F)(F)F)nc2-c2ccc(S(C)(=O)=O)cc2)cc1C [Example 52, 5-(3,5-Dimethyl-4-methoxyphenyl)-4-[4-(methylsulfonyl)phenyl]-2-(trifluoromethyl)-1H-imidazole] | 265 to 267 |
| Cc1cc(Cl)cc(-c2[nH]c(C(F)(F)F)nc2-c2ccc(S(C)(=O)=O)cc2)c1 [Example 54, 5-(3-Chloro-5-methylphenyl)-4-[-(methylsulfonyl)phenyl]-2-(trifluoromethyl)-1H-imidazole] | 260 to 262 |
| Cc1ccc(-c2[nH]c(C(F)(F)F)nc2-c2ccc(S(C)(=O)=O)cc2)cc1F [Example 56, 5-(3-Fluoro-4-methylphenyl)-4-[4-(methylsulfonyl)phenyl]-2-(trifluoromethyl)-1H-imidazole] | 251 to 252 |
| COc1ccc(-c2[nH]c(C(F)(F)F)nc2-c2ccc(S(C)(=O)=O)cc2)cc1Cl [Example 57, 5-(3-Chloro-4-methoxyphenyl)-4-[4-(methylsulfonyl)phenyl]-2-(trifluoromethyl)-1H-imidazole] | 288 to 291 |
| Cc1ccc(-c2[nH]c(C(F)(F)F)nc2-c2ccc(S(C)(=O)=O)cc2)cc1C [Example 61] | 279 to 284 |
| COc1cccc(-c2[nH]c(C(F)(F)F)nc2-c2ccc(S(C)(=O)=O)cc2)c1 [Example 65, 5-(3-Methoxyphenyl)-4-[4-(methylsulfonyl)phenyl]-2-(trifluoromethyl)-1H-imidazole] | 202 to 208 |
| CS(=O)(=O)c1ccc(-c2nc(C(F)(F)F)[nH]c2-c2cccc(F)c2)cc1 [Example 66, 5-(3-Fluorophenyl)-4-[4-(methylsulfonyl)phenyl]-2-(trifluoromethyl)-1H-imidazole] | 225 to 229 |
| Cc1ccccc1-c1[nH]c(C(F)(F)F)nc1-c1ccc(S(C)(=O)=O)cc1 [Example 67, 5-(2-Methylphenyl)-4-[4-(methylsulfonyl)phenyl]-2-(trifluoromethyl)-1H-imidazole] | 180 to 190 |
| CS(=O)(=O)c1ccc(-c2nc(C(F)(F)F)[nH]c2-c2cccc(Cl)c2)cc1 [Example 68, 5-(3-Chlorophenyl)-4-[4-(methylsulfonyl)phenyl]-2-(trifluoromethyl)-1H-imidazole] | 224 to 226 |

Results, then the compound that gave them:

| melting point [°C] | Compound |
| --- | --- |
| 250 to 253 | CS(=O)(=O)c1ccc(-c2nc(C(F)(F)F)[nH]c2C2CCCCC2)cc1 [Example 69, 5-(Cyclohexyl)-4-[4-(methylsulfonyl)phenyl]-2-(trifluoromethyl)-1H-imidazole] |
| 261 to 264 | Cc1cc(-c2[nH]c(C(F)(F)F)nc2-c2ccc(S(C)(=O)=O)cc2)ccc1Cl [Example 71, 5-(4-Chloro-3-methylphenyl)-4-[4-(methylsulfonyl)phenyl]-2-(trifluoromethyl)-1H-imidazole] |
| 273 to 275 | Cc1ccc(-c2[nH]c(C(F)(F)F)nc2-c2ccc(S(C)(=O)=O)cc2)cc1Cl [Example 73, 5-(3-Chloro-4-methylphenyl)-4-[4-(methylsulfonyl)phenyl]-2-(trifluoromethyl)-1H-imidazole] |
| 210 to 212 | CS(=O)(=O)c1ccc(-c2nc(C(F)(F)F)[nH]c2C2CCCC2)cc1 [Example 75, 5-(Cyclopentyl)-4-[4-(methylsulfonyl)phenyl]-2-(trifluoromethyl)-1H-imidazole] |
| 230 to 232 | CS(=O)(=O)c1ccc(-c2nc(C(F)(F)F)[nH]c2-c2ccsc2)cc1 [Example 76, 4-[4-(Methylsulfonyl)phenyl]-5-(3-thiophenyl)-2-(trifluoromethyl)-1H-imidazole] |
| 192 to 196 | Cc1c(F)cccc1-c1[nH]c(C(F)(F)F)nc1-c1ccc(S(C)(=O)=O)cc1 [Example 77, 5-(3-Fluoro-2-methylphenyl)-4-[4-(methylsulfonyl)phenyl]-2-(trifluoromethyl)-1H-imidazole] |
| 233 to 234 | COc1cc(-c2[nH]c(C(F)(F)F)nc2-c2ccc(S(C)(=O)=O)cc2)ccc1Cl [Example 78, 5-(4-Chloro-3-methoxyphenyl)-4-[4-(methylsulfonyl)phenyl]-2-(trifluoromethyl)-1H-imidazole] |
| 263.2 | CS(=O)(=O)c1ccc(-c2nc(C(=O)Cc3ccccc3)[nH]c2-c2ccc(F)cc2)cc1 [Example 86, 1-[5-(4-Fluorophenyl)-4-[4-(methylsulfonyl)phenyl]-1H-imidazol-2-yl]-2-phenylethanone] |
